The text below walks through data of US20240300976A1, “COMPOUNDS AS MODULATORS OF ENDOPLASMIC RETICULUM AMINOPEPTIDASE 1 (ERAP1)” (GREY WOLF THERAPEUTICS LIMITED, priority 2020, published 2024).

Like-named read-outs stand apart in the source and are kept apart here. Bounds are passed on as bounds.

The conditions of data set [1]: DCM.
The next data set has as its target T1, ERAP1 (Homo sapiens, UniProt Q9NZ08).
T1 construct: Purified ERAP1(37-941)-10His (ERAP1); 10His (C)
The experiment in a line: ERAP1 mediated hydrolysis of an amide substrate (10-mer inhibition assay), biochemical system. To be noted: 10-mer substrate, incubated at 23° C. for 1 h, excitation 279 nm and emission 355 nm; read-out: IC50 vs Decapeptide WRVYEKC(Dnp)ALK-acid (where Dnp is Dinitrophenyl maleimide) (10-mer). The procedure, abridged:
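Purified ERAP1(37-941)-10His in 25 mM Bis-tris propane, 0.05% HPMC, pH 7.75 was mixed with compound, then 240 μM L-AMC or 100 μM 10-mer WRVYEKC(Dnp)ALK (concentrations before mixing) was added, 1 h at 23 °C. 10-mer cleavage read as tryptophan fluorescence (ex 279/em 355 nm); L-AMC at ex 365/em 442 nm. IC50 from 4-parameter fit.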

T1 sequence (Q9NZ08 37-941): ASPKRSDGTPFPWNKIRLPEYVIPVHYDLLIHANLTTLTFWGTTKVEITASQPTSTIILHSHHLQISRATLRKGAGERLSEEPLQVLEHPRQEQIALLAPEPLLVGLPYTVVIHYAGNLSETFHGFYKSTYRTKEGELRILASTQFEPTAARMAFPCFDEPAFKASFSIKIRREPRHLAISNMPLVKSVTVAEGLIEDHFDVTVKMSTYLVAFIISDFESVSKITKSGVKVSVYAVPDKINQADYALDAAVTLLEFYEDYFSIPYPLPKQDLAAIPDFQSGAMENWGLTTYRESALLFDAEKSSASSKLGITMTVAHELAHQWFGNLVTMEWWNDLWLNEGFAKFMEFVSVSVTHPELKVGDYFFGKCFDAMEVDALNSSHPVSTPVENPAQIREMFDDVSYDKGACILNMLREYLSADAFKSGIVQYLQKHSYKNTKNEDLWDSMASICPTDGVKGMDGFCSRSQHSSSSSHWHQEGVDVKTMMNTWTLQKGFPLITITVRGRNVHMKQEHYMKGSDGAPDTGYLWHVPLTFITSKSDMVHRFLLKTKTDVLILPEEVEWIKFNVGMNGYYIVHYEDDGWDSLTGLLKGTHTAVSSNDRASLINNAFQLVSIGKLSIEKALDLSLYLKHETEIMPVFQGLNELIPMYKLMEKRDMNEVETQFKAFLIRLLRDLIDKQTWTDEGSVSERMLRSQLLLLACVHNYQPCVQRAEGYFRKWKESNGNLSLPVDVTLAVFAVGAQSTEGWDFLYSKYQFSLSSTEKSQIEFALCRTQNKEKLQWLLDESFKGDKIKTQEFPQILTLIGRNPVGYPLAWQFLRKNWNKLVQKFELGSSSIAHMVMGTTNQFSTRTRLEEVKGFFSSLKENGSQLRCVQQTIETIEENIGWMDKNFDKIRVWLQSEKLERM

On to “methyl (E)-2-cyano-7,8,9,9a,10,13-hexahydro-6H, 20H-dibenzo[b,f]pyrido[1,2-h][1]oxa[4]thia[5,8]diazacyclotridecine-17-carboxylate 19,19-dioxide”, for which the ring closure, isolated yield in data set [1] (rcm bond, 13-membered ring, Hoveyda-Grubbs II (5 mol%), 50.2 mM) was 66%.
With “(E)-20-tert-butyl 17-methyl 2-(trifluoromethyl)-6,7,8,9,9a,10-hexahydrodibenzo[b,f]pyrido[1,2-h][1,4,5,8]oxathiadiazacyclotridecine-17,20(13H)-dicarboxylate 19,19-dioxide”, the ring closure, isolated yield in data set [1] (rcm bond, 13-membered ring, Hoveyda-Grubbs II (two portions), 42.3 mM, 35.0 °C) was determined as 33%.
In data set [1] (from COC(=O)c1ccc(O)c(S(=O)(=O)Nc2cc(C#N)c(F)cc2N2CCCC[C@H]2CCCCO)c1, ether bond, 13-membered ring, PPh3/DIAD, 31.7 mM, 1.0 h), `COC(=O)c1ccc2c(c1)S(=O)(=O)Nc1cc(C#N)c(F)cc1N1CCCC[C@H]1CCCCO2` gave a ring closure, isolated yield of 88%.
In data set [1] (from COC(=O)c1ccc(O)c(S(=O)(=O)Nc2cc(C#N)c(Cl)cc2N2CCCC[C@H]2CCCO)c1, ether bond, 12-membered ring, PPh3/DIAD, 47.1 mM, 1.0 h), `COC(=O)c1ccc2c(c1)S(=O)(=O)Nc1cc(C#N)c(Cl)cc1N1CCCC[C@H]1CCCO2` yielded a ring closure, isolated yield of 23%.
`COC(=O)c1ccc2c(c1)S(=O)(=O)Nc1cc(C#N)c(Cl)cc1N1CCCCC1C=CCO2` (stereo not drawn) yielded a ring closure, isolated yield in data set [1] (from C=CCOc1ccc(C(=O)OC)cc1S(=O)(=O)Nc1cc(C#N)c(Cl)cc1N1CCCCC1C=C, rcm bond, 12-membered ring, Hoveyda-Grubbs II (2 x 5 mol%), 56.3 mM, 88.0 h) of 25%.
A word on the IC50: it is the concentration needed to halve the response being measured. For the compound `CS(=O)(=O)c1ccc2c(c1)NS(=O)(=O)c1cc(C(=O)O)ccc1OCCCC1CCCCN21` (single isomer, unassigned) [Example 49, 2-(methylsulfonyl)-6,7,8,9,9a,10,11,12-octahydro-19H-dibenzo[b,f]pyrido[1,2-h][1]oxa[4]thia[5,8]diazacyclododecine-16-carboxylic acid 18,18-dioxide], the IC50 at ERAP1 was less than 250 nM.
Still for that read-out and setting: next, `N#Cc1ccc2c(c1)NS(=O)(=O)c1cc(C(=O)O)ccc1OC/C=C/CC1CCCCN21` (racemic) [Example 15, (E)-2-cyano-7,8,9,9a,10,13-hexahydro-6H, 20H-dibenzo[b,f]pyrido[1,2-h][1]oxa[4]thia[5,8]diazacyclotridecine-17-carboxylic acid 19,19-dioxide]: less than 250 nM.
In data set [1] (from C=CCOc1ccc(C(=O)OC)cc1S(=O)(=O)Nc1cc(C#N)c(Cl)cc1N1CCCC[C@H]1CC=C, rcm bond, 13-membered ring, Hoveyda-Grubbs II, 20.1 mM, 16.0 h), `COC(=O)c1ccc2c(c1)S(=O)(=O)Nc1cc(C#N)c(Cl)cc1N1CCCC[C@H]1CC=CCO2` gave a ring closure, isolated yield of 81%.
As to `COC(=O)c1ccc2c(c1)S(=O)(=O)Nc1cc(C#N)c(Cl)cc1N1CCCC[C@@H]1CCCO2`, the ring closure, isolated yield in data set [1] (from COC(=O)c1ccc(O)c(S(=O)(=O)Nc2cc(C#N)c(Cl)cc2N2CCCC[C@@H]2CCCO)c1, ether bond, 12-membered ring, PPh3/DIAD, 43.7 mM, 1.0 h) stood at 22%.
